Results taken from patent US20070299062A1 (The Procter & Gamble Company, priority 2006, published 2007).
Where two headings read alike, the source gives them in different places.

Tests used:
MCH-1R = MCH-1R (UniProt Q99705); assay: MCH-1R competition binding assay
Method: In vitro binding and function assays are performed on membranes derived from cells or tissues expressing endogenous MCH1R. Competition binding assays are performed to identify high affinity compounds. Briefly, either radiolabeled or europium labeled MCH with varying concentrations of competitor compound which are incubated with membranes expressing the receptor. Rat brain membrane or cell lines, including but not limited to human Kelly neuroblastoma cells, A-431 epidermoid cells, and rat PC-12 cells are known to express endogenous MCH1R and are used in the assay. Binding is allowed to proceed until equilibrium is reached then bound labeled MCH is separated from free MCH by capturing membranes onto a filter. The filters are washed to remove loosely associated MCH and labeled MCH is quantified. Data is analyzed and IC50 and Ki are calculated to determine compound affinity.

5-HT2c receptor = target: T1, 5-HT2c receptor (Homo sapiens, UniProt P28335); assay: 5-HT2c receptor binding assay (3H-mesulergine competition)
T1 construct: purchased Perkin-Elmer or Euroscreen (named only as possible suppliers)
T1 sequence (P28335 33-458): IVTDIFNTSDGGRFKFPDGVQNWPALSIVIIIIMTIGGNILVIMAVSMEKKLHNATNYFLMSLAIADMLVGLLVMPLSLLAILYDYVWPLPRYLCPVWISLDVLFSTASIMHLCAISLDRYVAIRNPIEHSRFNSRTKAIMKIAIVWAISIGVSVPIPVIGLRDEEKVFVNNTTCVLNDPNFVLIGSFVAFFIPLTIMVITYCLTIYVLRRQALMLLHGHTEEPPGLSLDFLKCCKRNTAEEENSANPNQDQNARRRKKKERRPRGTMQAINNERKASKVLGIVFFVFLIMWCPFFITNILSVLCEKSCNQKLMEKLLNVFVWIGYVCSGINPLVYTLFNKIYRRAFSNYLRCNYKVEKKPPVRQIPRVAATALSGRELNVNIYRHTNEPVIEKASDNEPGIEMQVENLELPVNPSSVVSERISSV
Method: MCH antagonist compounds are evaluated for binding to the serotonin 5-HT2c receptor to determine receptor selectivity. Binding activity is assessed using a competitive assay with ^3H-mesulergine (Perkin Elmer), a 5-HT2c selective ligand, on membrane containing the 5-HT2c receptor. Briefly, 1 nM ^3H-mesulergine and varying concentrations of the compound are incubated with 5-HT2c receptor membranes, following an incubation period, the membranes are washed and ^3H-mesulergine bound to membranes is measured in a liquid scintillation counter. The amount of bound ^3H-mesulergine at the varying concentration of competitor compound is used to derive the affinity (Ki) of the compound for the 5-HT2c receptor. 5-HT2c receptor containing membranes are readily available from several companies including Perkin-Elmer and Euroscreen.

[1] = 1 nM 3H-mesulergine, read-out: Ki (nM) binding data 5-HT2C

With `CS(=O)(=O)N1CCN(Cc2ccc3c(c2)CC[C@H](n2cnc4cc(-c5ccnc(Cl)c5)sc4c2=O)C3)CC1` the Ki (MCH-1R) was 157 nM and the Ki (5-HT2c receptor; [1]) was greater than 100000 nM.
`COc1ncccc1-c1cc2ncn([C@H]3CCc4cc(CN5CCN(S(C)(=O)=O)CC5)ccc4C3)c(=O)c2s1` was tested, and the Ki (MCH-1R) was 373 nM and the Ki (5-HT2c receptor; [1]) was greater than 100000 nM.
Work on `CS(=O)(=O)N1CCN(Cc2ccc3c(c2)CC[C@H](n2cnc4cc(-c5ccc(Cl)cc5Cl)sc4c2=O)C3)CC1` yielded a Ki (MCH-1R) of 107 nM and a Ki (5-HT2c receptor; [1]) greater than 100000 nM.
Molecule `CS(=O)(=O)N1CCN(Cc2ccc3c(c2)CC[C@H](n2cnc4cc(-c5ccc(F)cc5F)sc4c2=O)C3)CC1` has a Ki (MCH-1R) of 7.6 nM and a Ki (5-HT2c receptor; [1]) greater than 100000 nM.
`CS(=O)(=O)N1CCN(Cc2ccc3c(c2)CC[C@H](n2cnc4cc(-c5cccc(C#N)c5)sc4c2=O)C3)CC1` showed a Ki (MCH-1R) of 310 nM and a Ki (5-HT2c receptor; [1]) greater than 100000 nM.
In the case of `CS(=O)(=O)N1CCN(Cc2ccc3c(c2)CC[C@H](n2cnc4cc(-c5ccc(Cl)c(Cl)c5)sc4c2=O)C3)CC1`, the Ki (MCH-1R) is reported as 142 nM and the Ki (5-HT2c receptor; [1]) is reported as greater than 100000 nM.
`CS(=O)(=O)N1CCN(Cc2ccc3c(c2)CC[C@H](n2cnc4cc(-c5ccc(F)c(F)c5)sc4c2=O)C3)CC1` was tested, and the Ki (MCH-1R) was 39.3 nM and the Ki (5-HT2c receptor; [1]) was greater than 100000 nM.
For `CS(=O)(=O)N1CCN(Cc2ccc3c(c2)CC[C@H](n2cnc4cc(-c5cc(F)cc(F)c5)sc4c2=O)C3)CC1`, the Ki (MCH-1R) was 117 nM and the Ki (5-HT2c receptor; [1]) was greater than 100000 nM.
Molecule `CS(=O)(=O)N1CCN(Cc2ccc3c(c2)CC[C@H](n2cnc4cc(-c5cncc(Cl)c5)sc4c2=O)C3)CC1` has a Ki (MCH-1R) of 21 nM and a Ki (5-HT2c receptor) greater than 100000 nM.
Work on `CS(=O)(=O)N1CCN(Cc2ccc3c(c2)CC[C@H](n2cnc4cc(-c5cncc(F)c5)sc4c2=O)C3)CC1` yielded a Ki (MCH-1R) of 13.4 nM and a Ki (5-HT2c receptor) greater than 100000 nM.
Molecule `COc1cncc(-c2cc3ncn([C@H]4CCc5cc(CN6CCN(S(C)(=O)=O)CC6)ccc5C4)c(=O)c3s2)c1` has a Ki (MCH-1R) of 17.9 nM and a Ki (5-HT2c receptor) greater than 100000 nM.
`CS(=O)(=O)N1CCN(Cc2ccc3c(c2)CC[C@H](n2cnc4cc(-c5ccoc5)sc4c2=O)C3)CC1` showed a Ki (MCH-1R) of 733 nM and a Ki (5-HT2c receptor; [1]) greater than 100000 nM.
In the case of `CS(=O)(=O)N1CCN(Cc2ccc3c(c2)CC[C@H](n2cnc4cc(-c5cccnc5)sc4c2=O)C3)CC1`, the Ki (MCH-1R) is reported as 752 nM and the Ki (5-HT2c receptor; [1]) is reported as greater than 100000 nM.
With `CS(=O)(=O)N1CCN(Cc2ccc3c(c2)CC[C@H](n2cnc4cc(-c5cccs5)sc4c2=O)C3)CC1` the Ki (MCH-1R) was 122 nM and the Ki (5-HT2c receptor; [1]) was greater than 100000 nM.
Molecule `CS(=O)(=O)N1CCN(Cc2ccc3c(c2)CC[C@H](n2cnc4cc(-c5ccsc5)sc4c2=O)C3)CC1` has a Ki (MCH-1R) of 60 nM and a Ki (5-HT2c receptor; [1]) greater than 100000 nM.
For `CN(C)Cc1ccc2c(c1)CC[C@H](n1cnc3cc(-c4ccc(Cl)cc4)sc3c1=O)C2` [6-(4-Chlorophenyl)-3-((S)-6-dimethylaminomethyl-1,2,3,4-tetrahydronapthealen-2-yl)thieno[3,2-d]pyrimidin-4(3H)-one], the Ki (MCH-1R) was 7.4 nM and the Ki (5-HT2c receptor; [1]) was 3170 nM.
In the case of `CNCc1ccc2c(c1)CC[C@H](n1cnc3cc(-c4ccc(Cl)cc4)sc3c1=O)C2` [6-(4-Chlorophenyl)-3-((S)-6-methylaminomethyl-1,2,3,4-tetrahydronapthealen-2-yl)thieno[3,2-d]pyrimidin-4(3H)-one], the Ki (MCH-1R) is reported as 0.4 nM and the Ki (5-HT2c receptor; [1]) is reported as 2140 nM.
Molecule `CN(CCS(C)(=O)=O)Cc1ccc2c(c1)CC[C@H](n1cnc3cc(-c4ccc(Cl)cc4)sc3c1=O)C2` [6-(4-Chlorophenyl)-3-((S)-6-{[2-methanesulfonylethyl)methylamino]methyl}-1,2,3,4-tetrahydronapthealen-2-yl)thieno[3,2-d]pyrimidin-4(3H)-one] has a Ki (MCH-1R) of 15.8 nM and a Ki (5-HT2c receptor; [1]) greater than 100000 nM.
`CC(=O)N1CCN(Cc2ccc3c(c2)CC[C@H](n2cnc4cc(-c5ccc(C#N)cc5)sc4c2=O)C3)CC1` [(S)-3-[6-(4-Acetylpiperazin-1-ymethyl)-1,2,3,4-tetrahydronap] [(S)-3-[6-(4-Acetylpiperazin-1-ymethyl)-1,2,3,4-tetrahydronapthalen-2-yl]-6-(4-cyanophenyl)thieno[3,2-d]pyrimidin-4(3H)-one] was tested, and the Ki (MCH-1R) was 34 nM.
In the case of `CC(=O)N1CCN(Cc2ccc3c(c2)CC[C@H](n2cnc4cc(-c5ccc(C#N)cc5)sc4c2=O)C3)CC1` [(S)-3-[6-(4-Acetylpiperazin-1-ymethyl)-1,2,3,4-tetrahydronapthalen-2-yl]-6-(4-cyanophenyl)thieno[3,2-d]pyrimidin-4(3H)-one], the Ki (5-HT2c receptor; [1]) is reported as greater than 100000 nM.
